In patent US20100286247A1, “Methods of Protection from Oxidative Stress” (Trustees of Boston University, priority 2005, published 2010):
{P} = phosphate

Tests used:
[1] = test system: primary human newborn dermal fibroblasts; test: MTS viability assay; type: cell-based; settings: 100 μM pTT
From the text: The CellTiter 96 Aqueous One Solution Cell Proliferation Assay, a version of the MTT assay, (Promega Corp., Madison, Wis.) is generally used as a eukaryotic cell viability and proliferation assay.^180 It has also been used to measure mitochondrial dysfunction,^181 because the assay measures the reduction of a tetrazolium compound [3-(4,5-dimethylthiazol-2-yl)-5-(-3-carboxymethoxyphenyl)-2-(4-sulfophenyl)-2H-tetrazolium] to formazan in viable mitochondria. The MTS assay utilizes a water-soluble form of the tetrazolium reagent in the original MIT assay. The formazan product is measured by absorbance at 492 nm.
Equal numbers of cells were seeded into 96-well tissue culture plates, and paired wells were treated once with pTT or diluent control as described above. At 24, 48 and 72 hours cell viability was assayed using the MTS assay and an ELIZA plate reader (Tecan Spectra II Model F039002, Austria) to measure absorbance at 492 nm. The experiments were conducted in parallel with cell yield Coulter counts, using the same donor cells.
Cell yields of pTT-treated fibroblasts were compared to diluent using 2-way ANOVA and a total of four different experiments, to identify significant difference between treatment groups as a function of cell number and time. The parallel MTS assay also utilized the 2-way ANOVA, to compare changes in OD at 492 nm as a function of time and treatment modality.

GPX protein = test: Western blot analysis of antioxidant enzymes: GPX protein; type: cell-based, human; settings: 40 μM, within several hours, up to 168 hours
Protocol: (§1) Cell lysates were harvested at various intervals after T-oligo treatment in harvest buffer containing 0.25 M Tris HCl (pH 7.5), 0.375 M NaCl, 2.5% sodium deoxycholate, 1% Triton X-100, 25 mM MgCl2, 0.1 mg/ml aprotinin (Sigma, St. Louis, Mo.) and 1 mM phenylmethyl sulfonyl flouride (PMSF) (Sigma). Samples were sheared through a fine needle syringe, sonicated, centrifuged and the supernatant was isolated. Total cellular protein concentrations were determined spectrophotometrically with the Bio-Rad protein assay (Bio-Rad Laboratories, Inc, Hercules, Calif.). Equal amounts of total protein from each sample (35-65 μg) were separated by 10-15% polyacrylamide gel electrophoresis, and transferred to nitrocellulose membranes. […]
(§2) Membranes were reacted with antibodies diluted in Tris-based buffer with nonfat milk powder as a blocking agent. […] Antibody binding was detected with electrochemical luminescence (ECL kit, NEN Life Science Products, Inc.) and exposure to XAR film (Eastman Kodak Co.).
(§3) The levels of superoxide dismutase 1 (SOD1), superoxide dismutase 2 (SOD2), catalase (Cat) and glutathione peroxidase (GPX) were determined in newborn fibroblasts at different time points after treatment with 40 μM of T-oligo in comparison with cells treated either with 40 μM of control complementary oligo pCTAACCCTAAC (SEQ ID NO: 22) or diluent. […]

SOD1 protein = test: Western blot analysis of antioxidant enzymes: SOD1 protein; type: cell-based, human; settings: 40 μM, within several hours, up to 168 hours
Protocol: as §1, §2, §3

Substance	cell viability (MTS formazan absorbance) vs diluent ([1]; 24-72 hours, 2-way ANOVA p=0.2588)	mitochondrial reductive activity per cell (MTS absorbance per Coulter-counted cell) ([1]; p=0.0093)	GPX protein level (GPX protein)	SOD1 protein level (SOD1 protein)
5′-phosphorylated thymidine dinucleotides [pTT]	no significant decrease in cell viability	significant increase in mitochondrial reductive activity per cell	–	–
pGTTAGGGTTAG (5' {P}, sugars by position and backbone not given here) [TO]	–	–	induced	induced
